Measurements from patent US11925624B2, “Methods of administering anti-fibrotic therapy” (GENENTECH, INC., priority 2016, dated 2024).
Where “and” joins values, the source holds several entries; their conditions need not be identical. Equal entries are not always repeated. Entries after “also recorded” stand apart in the source; their conditions may differ. Where two headings read alike, the source gives them in different places.

Assay: Phase 1 single ascending dose (Part A) pharmacokinetics, fasted state
Format: in vivo, human
Details: for % AUCextrap: arithmetic mean; for AUC(0-inf) / AUC(0-t) / Cmax / Vd/F / half-life / Tmax / CL renal: human; for AUC(0-inf) / AUC(0-t) / Cmax / Vd/F / half-life / Tmax: plasma
Experimental: A Phase 1, randomized, blinded, placebo-controlled safety, tolerability, and pharmacokinetic study of Compound I in 80 healthy adult subjects was conducted.
This study was a randomized, blinded, placebo-controlled, ascending-dose study to evaluate the safety, tolerability, and pharmacokinetic (PK) of single (Part A) and multiple (Part B) doses of Compound I in healthy subjects. In addition, the effects of a standard high-fat breakfast, standard low-fat breakfast, and pretreatment and co-administration of a proton pump inhibitor (PPI) on the tolerability and PK of a single dose of Compound I were investigated in 2 groups in Part A. All subjects received their full dose of Compound I, administered as the appropriate number of either 25 or 200 mg tablets. The high fat breakfast comprised the following: total energy: 895 kcal; total fat: 61 g; total protein: 41 g; total carbohydrate: 46 g. The low fat breakfast comprised the following: total energy: 611 kcal; total fat: 14.7 g; total protein: 20.3 g; total carbohydrate: 106.3 g.
In Part A, 56 subjects were studied in 6 groups (Groups A1 to A6) with each of Groups A1, A2, A3, A5, and A6 composed of 8 subjects (6 received Compound I, 2 received placebo) and Group A4 was composed of 16 subjects (12 received Compound I, 4 received placebo). The first dose group (A1) included a sentinel cohort of 2 subjects (1 subject received Compound I and 1 subject received placebo) dosed 48 hours in advance of the remainder of the group.
All subjects in Groups A1 through A6 participated in Treatment Period 1 and received the fasted treatment regimen. In Treatment Period 1, subjects resided at the Clinical Research Unit (CRU) from Day −1 (the day before dosing) to Day 4 (72 hours post-dose). In Treatment Period 1, all doses were administered on the morning of Day 1, after an overnight fast of at least 8 hours. In Groups A1, A2, A3, and A6, each subject received only a single dose of Compound I (25 mg in Group A1, 75 mg in Group A2, 200 mg in Group A3, and 1600 mg in Group A6) or placebo (per the randomization schedule) during the study.
In Part A, all doses in Treatment Period 1 were administered after an overnight fast of at least 8 hours. For the A4 cohort, in Treatment Periods 2 and 3, doses were administered 30 minutes after starting and approximately 10 minutes after completing a high- or low-fat breakfast. In Treatment Period 4, the dose was administered after an overnight fast and following administration of a PPI (PPI was comprised of 3 doses of rabeprazole 20 mg, starting on Day −2 and with the final dose 2 hours before Compound I administration on Day 1). For Group A5, doses during Treatment Period 2 were administered 30 minutes after starting and approximately 10 minutes after completing a low-fat standard breakfast on the morning of Day 1, and doses during Treatment Period 3 were administered on Day 1 after a low-fat meal and following administration of a PPI for 3 days (given as 3 QD doses, with the final PPI dose at 2 hours prior to study drug administration on Day 1).

[1] = 75 mg vs 25 mg (3-fold increase in dose)
[2] = 800-mg dose level (32.0-fold increase in dose)

For `Cn1cc(-c2cn(-c3ccc(OC(F)(F)F)cc3)c(=O)c3ncn(C)c23)cn1` [Compound I], the “AUC0-t (norm)” value (25 mg single dose (A1)) was 13400 hr*ng/mL/(mg/kg), the “AUC0-∞ (norm)” value (25 mg single dose (A1)) was 13600 hr*ng/mL/(mg/kg) and the Ae0-24 (25 mg single dose (A1)) was 19.2 mg. For the same molecule, the CL/F (25 mg single dose (A1)) was 90.5 mL/min, the “CL/F(norm)” value (25 mg single dose (A1)) was 1.23 (mL/min)/kg and the “Cmax (norm)” value (25 mg single dose (A1)) was 2700 ng/mL/(mg/kg). The fe0-24 (25 mg single dose (A1)) was 76.9%, the t1/2 (25 mg single dose (A1)) was 3.61 h and the λZ (25 mg single dose (A1)) was 0.192 h⁻¹. For the same molecule, the “% AUCextrap” value (25 mg single dose (A1)) was 1.25%, the “AUC0-t (norm)” value (75 mg single dose (A2)) was 12600 hr*ng/mL/(mg/kg) and the “AUC0-∞ (norm)” value (75 mg single dose (A2)) was 12600 hr*ng/mL/(mg/kg). For the same molecule, the Ae0-24 (75 mg single dose (A2)) was 54.8 mg, the CL/F (75 mg single dose (A2)) was 96.0 mL/min and the “CL/F(norm)” value (75 mg single dose (A2)) was 1.32 (mL/min)/kg. The “Cmax (norm)” value (75 mg single dose (A2)) was 2180 ng/mL/(mg/kg), the fe0-24 (75 mg single dose (A2)) was 73.0% and the t1/2 (75 mg single dose (A2)) was 5.02 h. The λZ (75 mg single dose (A2)) was 0.138 h⁻¹, the “% AUCextrap” value (75 mg single dose (A2)) was 0.486% and the “Fold increase in AUC0-t” value [1] was 2.9 fold. For the same molecule, the “Fold increase in AUC0-∞” value [1] was 2.8 fold, the “Fold increase in Cmax” value [1] was 2.5 fold and the “AUC0-t (norm)” value (200 mg single dose (A3)) was 12000 hr*ng/mL/(mg/kg). For the same molecule, the “AUC0-∞ (norm)” value (200 mg single dose (A3)) was 12100 hr*ng/mL/(mg/kg), the Ae0-24 (200 mg single dose (A3)) was 105 mg and the CL/F (200 mg single dose (A3)) was 102 mL/min. For the same molecule, the “CL/F(norm)” value (200 mg single dose (A3)) was 1.38 (mL/min)/kg, the “Cmax (norm)” value (200 mg single dose (A3)) was 1140 ng/mL/(mg/kg) and the fe0-24 (200 mg single dose (A3)) was 52.5%. For the same molecule, the λZ (200 mg single dose (A3)) was 0.0602 h⁻¹, the “% AUCextrap” value (200 mg single dose (A3)) was 0.969% and the “AUC0-t (norm)” value (400 mg single dose (A4)) was 9420 hr*ng/mL/(mg/kg). For the same molecule, the “AUC0-∞ (norm)” value (400 mg single dose (A4)) was 9650 hr*ng/mL/(mg/kg), the Ae0-24 (400 mg single dose (A4)) was 133 mg and the CL/F (400 mg single dose (A4)) was 121 mL/min. For the same molecule, the “CL/F(norm)” value (400 mg single dose (A4)) was 1.73 (mL/min)/kg, the “Cmax (norm)” value (400 mg single dose (A4)) was 790 ng/mL/(mg/kg) and the fe0-24 (400 mg single dose (A4)) was 33.3%. The λZ (400 mg single dose (A4)) was 0.0594 h⁻¹, the “% AUCextrap” value (400 mg single dose (A4)) was 2.37% and the “AUC0-t (norm)” value (800 mg single dose (A5)) was 6700 hr*ng/mL/(mg/kg). For the same molecule, the “AUC0-∞ (norm)” value (800 mg single dose (A5)) was 7080 hr*ng/mL/(mg/kg), the Ae0-24 (800 mg single dose (A5)) was 172 mg and the CL/F (800 mg single dose (A5)) was 169 mL/min. For the same molecule, the “CL/F(norm)” value (800 mg single dose (A5)) was 2.35 (mL/min)/kg, the “Cmax (norm)” value (800 mg single dose (A5)) was 532 ng/mL/(mg/kg) and the fe0-24 (800 mg single dose (A5)) was 21.5%. For the same molecule, the λZ (800 mg single dose (A5)) was 0.0433 h⁻¹, the “% AUCextrap” value (800 mg single dose (A5)) was 5.17% and the “Increase in AUC and Cmax” value (1600 mg dose compared to 800 mg dose) was “no significant increase”. The “AUC0-t (norm)” value (1600 mg single dose (A6)) was 3090 hr*ng/mL/(mg/kg), the “AUC0-∞ (norm)” value (1600 mg single dose (A6)) was 3740 hr*ng/mL/(mg/kg) and the Ae0-24 (1600 mg single dose (A6)) was 145 mg. The CL/F (1600 mg single dose (A6)) was 307 mL/min, the “CL/F(norm)” value (1600 mg single dose (A6)) was 4.46 (mL/min)/kg and the “Cmax (norm)” value (1600 mg single dose (A6)) was 235 ng/mL/(mg/kg). The fe0-24 (1600 mg single dose (A6)) was 9.1% and 9.09%, the λZ (1600 mg single dose (A6)) was 0.0351 h⁻¹ and the “% AUCextrap” value (1600 mg single dose (A6)) was 6.57%. The “Dose proportionality of systemic exposure (Cmax and AUC)” value (200-mg dose and greater) was “less than proportional”, the “Fold increase in AUC0-t” value [2] was 16.4 fold and the “Fold increase in AUC0-∞” value [2] was 17.1 fold. For the same molecule, the “Fold increase in Cmax” value [2] was 6.5 fold, the “Dose proportionality of systemic exposure (Cmax and AUC)” value (between 25 and 75 mg) was “dose-proportional; also recorded: consistent with linear PK” and the AUC(0-inf) (oral, 25 mg single dose (A1)) was 4600 ng·h/mL. For the same molecule, the AUC(0-t) (oral, 25 mg single dose (A1)) was 4550 ng·h/mL, the Cmax (oral, 25 mg single dose (A1)) was 913 ng/mL and the Vd/F (oral, 25 mg single dose (A1), read-out: Vz/F) was 28.3 L. The Vd/F (oral, 25 mg single dose (A1), read-out: Vz/F(norm)) was 0.384 L/kg, the half-life (oral, 25 mg, 25 mg single dose (A1)) was 3.6 h and the Tmax (oral, 25 mg, 25 mg single dose (A1), median, read-out: tmax) was 1.5 h. The AUC(0-inf) (oral, 75 mg single dose (A2)) was 13000 ng·h/mL, the AUC(0-t) (oral, 75 mg single dose (A2)) was 13000 ng·h/mL and the Cmax (oral, 75 mg single dose (A2)) was 2250 ng/mL. For the same molecule, the Vd/F (oral, 75 mg single dose (A2), read-out: Vz/F) was 41.7 L, the Vd/F (oral, 75 mg single dose (A2), read-out: Vz/F(norm)) was 0.574 L/kg and the half-life (oral, 75 mg, 75 mg single dose (A2)) was 5 h. It also gave a Tmax (oral, 75 mg, 75 mg single dose (A2), median, read-out: tmax) of 1.25 h, a Tmax (oral, 75 mg, 25 and 75 mg doses, read-out: tmax, latest individual value) of at most 2.5 h and an AUC(0-inf) (oral, 200 mg single dose (A3)) of 32600 ng·h/mL. The AUC(0-t) (oral, 200 mg single dose (A3)) was 32300 ng·h/mL, the Cmax (oral, 200 mg single dose (A3)) was 3060 ng/mL and the Vd/F (oral, 200 mg single dose (A3), read-out: Vz/F) was 102 L. The Vd/F (oral, 200 mg single dose (A3), read-out: Vz/F(norm)) was 1.37 L/kg, the half-life (oral, 200 mg, 200 mg single dose (A3)) was 10.2 h and the Tmax (oral, 200 mg, 200 mg single dose (A3), median, read-out: tmax) was 1.75 h. For the same molecule, the AUC(0-inf) (oral, 400 mg single dose (A4)) was 55100 ng·h/mL, the AUC(0-t) (oral, 400 mg single dose (A4)) was 53800 ng·h/mL and the Cmax (oral, 400 mg single dose (A4)) was 4510 ng/mL. For the same molecule, the Vd/F (oral, 400 mg single dose (A4), read-out: Vz/F) was 122 L, the Vd/F (oral, 400 mg single dose (A4), read-out: Vz/F(norm)) was 1.74 L/kg and the half-life (oral, 400 mg, 400 mg single dose (A4)) was 11.7 h. For the same molecule, the Tmax (oral, 400 mg, 400 mg single dose (A4), median, read-out: tmax) was 2.5 h, the AUC(0-inf) (oral, 800 mg single dose (A5)) was 78700 ng·h/mL and the AUC(0-t) (oral, 800 mg single dose (A5)) was 74500 ng·h/mL. The Cmax (oral, 800 mg single dose (A5)) was 5910 ng/mL, the Vd/F (oral, 800 mg single dose (A5), read-out: Vz/F) was 234 L and the Vd/F (oral, 800 mg single dose (A5), read-out: Vz/F(norm)) was 3.26 L/kg. The half-life (oral, 800 mg, 800 mg single dose (A5)) was 11.3 h, the Tmax (oral, 800 mg, 800 mg single dose (A5), median, read-out: tmax) was 1.8 h and the AUC(0-inf) (oral, 1600 mg single dose (A6)) was 86900 ng·h/mL. The AUC(0-t) (oral, 1600 mg single dose (A6)) was 73600 ng·h/mL, the Cmax (oral, 1600 mg single dose (A6)) was 5580 ng/mL and the Vd/F (oral, 1600 mg single dose (A6), read-out: Vz/F) was 525 L. It also gave a Vd/F (oral, 1600 mg single dose (A6), read-out: Vz/F(norm)) of 7.62 L/kg, a half-life (oral, 1600 mg, 1600 mg single dose (A6)) of 19.8 h and a Tmax (oral, 1600 mg, 1600 mg single dose (A6), median, read-out: tmax) of 2 h. For the same molecule, the Tmax (oral, higher dose levels (200 to 1600 mg), read-out: tmax, latest individual value) was at most 6 h, the Tmax (po, single oral doses 25 to 1600 mg, read-out: Median tmax, range across all doses) was 1.3 to 2.5 h and the CL renal (urine and plasma, oral, 400 mg single dose (A4)) was 49.7 mL/min. It also gave a CL renal (urine and plasma, oral, 800 mg single dose (A5)) of 48.5 mL/min, a CL renal (urine and plasma, oral, 1600 mg single dose (A6)) of 47.6 mL/min and a CL renal (urine, oral, 25 mg single dose (A1)) of 70.5 mL/min. For the same molecule, the CL renal (urine, oral, 75 mg single dose (A2)) was 71.8 mL/min and the CL renal (urine, oral, 200 mg single dose (A3)) was 63.5 mL/min.
